Experimental data as given in patent publication US20170253607A1, “LONG-ACTING HIV PROTEASE INHIBITOR” (Shionogi & Co., Ltd., priority 2014, published 2017).
pIC50: −log10 of the molar value.

What follows are compounds tested against HIV-1 PR (Human immunodeficiency virus type 1 group M subtype B, UniProt P04585) (assay: HIV-protease inhibitory activity assay (FRET peptide substrate)). Conditions: Test Example 1.
Format: biochemical
In short: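 HIV-1 PR (0.83 ng) preincubated with compounds 20 min at room temperature in 0.1 mol/L NaAc, 0.5 mol/L NaCl, 1 mmol/L EDTA, 1 mmol/L DTT, 0.05% Tween 20, pH 4.8. Cleavage of HiLyte Fluor 488/QXL 520 FRET peptide (2 μmol/L) read after 60 minutes at 485/535 nm; IC50 from four-parameter logistic fit.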

Compound	pIC50
CC1(C)CCc2sc(-c3ccc(C(F)(F)F)cc3CNc3ccc(CC(NC(=O)OC4COC5OCCC45)C(O)CN(CC4CCCC4)S(=O)(=O)c4ccc5c(c4)OCO5)cc3)c(C(=O)O)c2C1 (stereo not drawn) [Compound I-876]	8.15
COc1ccc(S(=O)(=O)N(CC(C)C)CC(O)C(Cc2ccc(-c3sccc3C(=O)O)cc2)NC(=O)OC2COC3(C)OCCC23)cc1 (stereo not drawn) [Compound I-108]	8.95
COc1ccc(S(=O)(=O)N(CC(C)C)CC(O)C(Cc2ccc(N(C)C3CCc4c(-c5sc6c(c5C(=O)O)CC(C)(C)CC6)cccc43)cc2)NC(=O)OC2COC3(C)OCCC23)cc1 (stereo not drawn) [Compound I-710]	8.37
CCN(C(=O)Nc1ccccc1-c1sc2c(c1C(=O)O)CC(C)(C)CC2)c1ccc(CC(NC(=O)OC2COC3(C)OCCC23)C(O)CN(CC(C)C)S(=O)(=O)c2ccc(OC)cc2)cc1 (stereo not drawn) [Compound I-377]	8.27
COc1ccc(S(=O)(=O)N(CC(C)C)CC(O)C(Cc2ccc(N(C)Cc3ccccc3NC(=O)c3sc4c(c3C(=O)O)CC(C)(C)CC4)cc2)NC(=O)OC2COC3(C)OCCC23)cc1 (stereo not drawn) [Compound I-587]	8.77
COc1ccc(S(=O)(=O)N(CC(C)C)CC(O)C(Cc2ccc(N(C)Cc3nc(N4CCOCC4)sc3-c3sc4c(c3C(=O)O)CC(C)(C)CC4)cc2)NC(=O)OC2COC3(C)OCCC23)cc1 (stereo not drawn) [Compound I-757]	8.52
COc1ccc(S(=O)(=O)N(CC(C)C)CC(O)C(Cc2ccc(N(Cc3ccccc3-c3sc4c(c3C(=O)O)CC(C)(C)CC4)CC3CC3)cc2)NC(=O)OC2COC3(C)OCCC23)cc1 (stereo not drawn) [Compound I-460]	8.45
COc1ccc(S(=O)(=O)N(CC(C)C)CC(O)C(Cc2ccc(NCc3cncc(-c4sc5c(c4C(=O)O)CC(C)(C)CC5)c3)cc2)NC(=O)OC2COC3(C)OCCC23)cc1 (stereo not drawn) [Compound I-557]	8.78
CC(C)CN(C[C@@H](O)[C@H](Cc1ccc(OCc2ccccc2-c2sc3c(c2C(=O)O)CC(C)(C)CC3)cc1)NC(=O)O[C@H]1CO[C@@]2(C)OCC[C@@H]12)S(=O)(=O)c1ccc(N)c(/C=C/C(N)=O)c1 [Compound I-16]	8.65
COc1ccc(S(=O)(=O)N(CC(C)C)CC(O)C(Cc2ccc(N(C)CC3=C(c4sc5c(c4C(=O)O)CC(C)(C)CC5)COC3)cc2)NC(=O)OC2COC3(C)OCCC23)cc1 (stereo not drawn) [Compound I-569]	8.65
COc1ccc(S(=O)(=O)N(CC(C)C)CC(O)C(Cc2ccc(N(C)Cc3cc(Oc4ccccn4)ccc3-c3sc4c(c3C(=O)O)CC(C)(C)CC4)cc2)NC(=O)OC2COC3(C)OCCC23)cc1 (stereo not drawn) [Compound I-686]	8.44
CC(C)CN(CC(O)C(Cc1ccc(Oc2ccc(-c3ccc(F)cc3F)cc2C(=O)O)cc1)NC(=O)OC1COC2(C)OCCC12)S(=O)(=O)c1ccc2ncsc2c1 (stereo not drawn) [Compound I-59]	8.92
CCCCCCN(Cc1ccccc1-c1sc2c(c1C(=O)O)CC(C)(C)CC2)c1ccc(CC(NC(=O)OC2COC3(C)OCCC23)C(O)CN(CC(C)C)S(=O)(=O)c2ccc(OC)cc2)cc1 (stereo not drawn) [Compound I-428]	7.80
COc1ccc(S(=O)(=O)N(CC(C)C)CC(O)C(Cc2ccc(OCc3ccccc3NC(=O)c3cc(Cl)cc(Cl)c3O)cc2)NC(=O)OC2COC3(C)OCCC23)cc1 (stereo not drawn) [Compound I-69]	8.93
COc1ccc(S(=O)(=O)N(CC(C)C)CC(O)C(Cc2ccc(OCc3ccccc3-c3oc4c(c3C(=O)O)CCCC4)cc2)NC(=O)OC2COC3OCCC23)cc1 (stereo not drawn) [Compound I-834]	8.94
COc1ccc(S(=O)(=O)N(CC(C)C)CC(O)C(Cc2ccc(NCc3ccccc3-c3c(C(=O)O)[nH]c4ccccc34)cc2)NC(=O)OC2COC3(C)OCCC23)cc1 (stereo not drawn) [Compound I-660]	8.67
COc1ccc(S(=O)(=O)N(CC(C)C)CC(O)C(Cc2ccc(N3CCC(Oc4ccc(-c5sc6c(c5C(=O)O)CC(C)(C)CC6)cc4)C3)cc2)NC(=O)OC2COC3(C)OCCC23)cc1 (stereo not drawn) [Compound I-350]	8.27
COc1ccc(S(=O)(=O)N(CC(C)C)CC(O)C(Cc2ccc(N(C)CC3CCCCC3c3sc4c(c3C(=O)O)CC(C)(C)CC4)cc2)NC(=O)OC2COC3(C)OCCC23)cc1 (stereo not drawn) [Compound I-358]	8.41
COc1ccc(S(=O)(=O)N(CC(C)C)CC(O)C(Cc2ccc(OCc3ccccc3-c3sc(Oc4ccccc4)nc3C(=O)O)cc2)NC(=O)OC2COC3OCCC23)cc1 (stereo not drawn) [Compound I-843]	8.88
COc1ccc(S(=O)(=O)N(CC(C)C)CC(O)C(Cc2ccc(NCCOc3ccccc3-c3sc4c(c3C(=O)O)CC(C)(C)CC4)cc2)NC(=O)OC2COC3(C)OCCC23)cc1 (stereo not drawn) [Compound I-619]	8.61
COc1ccc(S(=O)(=O)N(CC2CCCC2)CC(O)C(Cc2ccc(OCc3ccccc3Cn3nc(C(=O)O)c4c3CCC(C)(C)C4)cc2)NC(=O)OC2COC3(C)OCCC23)cc1 (stereo not drawn) [Compound I-221]	8.68
COc1ccc(S(=O)(=O)N(CC(C)C)CC(O)C(Cc2ccc(N(C)Cc3nc(N4CCCCC4)sc3-c3sc4c(c3C(=O)O)CC(C)(C)CC4)cc2)NC(=O)OC2COC3(C)OCCC23)cc1 (stereo not drawn) [Compound I-756]	8.46
COc1ccc(S(=O)(=O)N(CC(C)C)CC(O)C(Cc2ccc(N(C)CCOc3ccccc3-c3sc4c(c3C(=O)O)CC(C)(C)CC4)cc2)NC(=O)OC2COC3OCCC23)cc1 (stereo not drawn) [Compound I-864]	8.65

Compound	pIC50
COc1ccc(S(=O)(=O)N(CC(C)C)CC(O)C(Cc2ccc(NCc3ccccc3-c3cnc(-c4sc5c(c4C(=O)O)CC(C)(C)CC5)s3)cc2)NC(=O)OC2COC3(C)OCCC23)cc1 (stereo not drawn) [Compound I-766]	8.48
COc1ccc(S(=O)(=O)N(CC(C)C)CC(O)C(Cc2ccc(NCc3cc4c(cc3-c3sc5c(c3C(=O)O)CC(C)(C)CC5)OCC(=O)N4)cc2)NC(=O)OC2COC3(C)OCCC23)cc1 (stereo not drawn) [Compound I-754]	8.60
COc1ccc(S(=O)(=O)N(CC(C)C)CC(O)C(Cc2ccc(OCC3CCCN3c3ccc(C#N)cc3-c3sc4c(c3C(=O)O)CC(C)(C)CC4)cc2)NC(=O)OC2COC3(C)OCCC23)cc1 (stereo not drawn) [Compound I-326]	8.04
COc1ccc(S(=O)(=O)N(CC(C)C)CC(O)C(Cc2ccc(NCc3ccccc3-c3c(C(=O)O)n(Cc4ccccc4)c4ccc(OC)cc34)cc2)NC(=O)OC2COC3(C)OCCC23)cc1 (stereo not drawn) [Compound I-635]	8.68
COc1ccc(S(=O)(=O)N(CC(C)C)CC(O)C(Cc2ccc(N(C)Cc3nc(N4CCN(C)CC4)sc3-c3sc4c(c3C(=O)O)CC(C)(C)CC4)cc2)NC(=O)OC2COC3(C)OCCC23)cc1 (stereo not drawn) [Compound I-758]	8.79
COc1ccc(S(=O)(=O)N(CC(C)C)CC(O)C(Cc2ccc(-c3sc4c(c3C(=O)O)CC(C)(C)CC4)cc2)NC(=O)OC2COC3(C)OCCC23)cc1 (stereo not drawn) [Compound I-41]	8.95
CC(C)CN(CC(O)C(Cc1ccc(OCc2ccccc2-c2ccccc2C(=O)O)cc1)NC(=O)OC1COC2(C)OCCC12)S(=O)(=O)c1ccc2ncsc2c1 (stereo not drawn) [Compound I-64]	8.89
COc1ccc(S(=O)(=O)N(CC(C)C)CC(O)C(Cc2ccc(CN(C)c3ccccc3-c3sc4c(c3C(=O)O)CC(C)(C)CC4)cc2)NC(=O)OC2COC3(C)OCCC23)cc1 (stereo not drawn) [Compound I-249]	8.65
COc1ccc(S(=O)(=O)N(CC(C)C)CC(O)C(Cc2ccc(OC3CCC(C(C)(C)C(=O)O)CC3)cc2)NC(=O)OC2COC3(C)OCCC23)cc1 (stereo not drawn) [Compound I-310]	8.71
COc1ccc(S(=O)(=O)N(CC(C)C)CC(O)C(Cc2ccc(NCc3ccc(O)cc3-c3sc4c(c3C(=O)O)CC(C)(C)CC4)cc2)NC(=O)OC2COC3(C)OCCC23)cc1 (stereo not drawn) [Compound I-548]	8.83
COc1ccc(S(=O)(=O)N(CC(C)C)CC(O)C(Cc2ccc(NCc3ccccc3-c3c(C(=O)O)[nH]c4cc(Cl)cc(Cl)c34)cc2)NC(=O)OC2COC3(C)OCCC23)cc1 (stereo not drawn) [Compound I-633]	8.61
COc1ccc(S(=O)(=O)N(CC(C)C)CC(O)C(Cc2ccc(N(C)Cc3sc4c(c3C(=O)O)CC(C)(C)CC4)cc2)NC(=O)OC2COC3(C)OCCC23)cc1 (stereo not drawn) [Compound I-46]	8.73
COc1ccc(S(=O)(=O)N(CC(C)C)CC(O)C(Cc2ccc(OC3CCN(C(=O)c4sc5c(c4C(=O)O)CC(C)(C)CC5)C3)cc2)NC(=O)OC2COC3(C)OCCC23)cc1 (stereo not drawn) [Compound I-245]	8.70
COc1ccc(S(=O)(=O)N(CC(C)C)CC(O)C(Cc2ccc(NCc3cc(Oc4ccccn4)ccc3-c3sc4c(c3C(=O)O)CC(C)(C)CC4)cc2)NC(=O)OC2COC3(C)OCCC23)cc1 (stereo not drawn) [Compound I-685]	8.53
COc1ccc(S(=O)(=O)N(CC(C)C)CC(O)C(Cc2ccc(OCc3ccccc3-c3ccc(-n4nc(C(=O)O)c5c4CCC(C)(C)C5)cc3)cc2)NC(=O)OC2COC3(C)OCCC23)cc1 (stereo not drawn) [Compound I-302]	8.64
CC(C)CN(C[C@@H](O)[C@H](Cc1ccc(OCc2ccccc2-c2sc3c(c2C(=O)O)CC(C)(C)CC3)cc1)NC(=O)O[C@H]1CO[C@@]2(C)OCC[C@@H]12)S(=O)(=O)c1ccc(N)c(CCC(N)=O)c1 [Compound I-17]	8.91
COc1ccc(S(=O)(=O)N(CC(C)C)CC(O)C(Cc2ccc(NCc3ccc(C)cc3C(=O)Nc3sc4c(c3C(=O)O)CC(C)(C)CC4)cc2)NC(=O)OC2COC3(C)OCCC23)cc1 (stereo not drawn) [Compound I-716]	8.40
CC(C)CN(CC(O)C(Cc1ccc(OCc2cnc(C(=O)O)c(-c3ccc(F)cc3F)c2)cc1)NC(=O)OC1COC2(C)OCCC12)S(=O)(=O)c1ccc2ncsc2c1 (stereo not drawn) [Compound I-157]	8.91
COc1ccc(S(=O)(=O)N(CC(C)C)CC(O)C(Cc2ccc(COC3CCCN3c3ccccc3-c3sc4c(c3C(=O)O)CC(C)(C)CC4)cc2)NC(=O)OC2COC3(C)OCCC23)cc1 (stereo not drawn) [Compound I-103]	8.43
COc1ccc(S(=O)(=O)N(CC(C)C)C[C@@H](O)[C@H](Cc2ccc(OCc3ccccc3-c3sc4c(c3C(=O)O)CC(C)(C)CC4)cc2)NC(=O)O[C@H]2CCC[C@H]3O[C@@H]4OCC[C@@H]4[C@@H]23)cc1 [Compound I-909]	8.49
COc1ccc(S(=O)(=O)N(CC(C)C)CC(O)C(Cc2ccc(CN(C)C3CCCCC3c3sc4c(c3C(=O)O)CC(C)(C)CC4)cc2)NC(=O)OC2COC3(C)OCCC23)cc1 (stereo not drawn) [Compound I-342]	8.69
COc1ccc(S(=O)(=O)N(CC(C)C)CC(O)C(Cc2ccc(OCc3ccccc3-n3nc4c(c3C(=O)O)CC3(CCCC3)CC4)cc2)NC(=O)OC2COC3(C)OCCC23)cc1 (stereo not drawn) [Compound I-53]	9.08
